Laboratory results as given in patent US8148391B2 (Cephalon, Inc., priority 2006, dated 2012).

How the values were obtained:
[1] = molecular target: T1, c-Met (cytoplasmic domain) (Homo sapiens, UniProt P08581); assay: c-Met Kinase Assay (same methods as for ALK, with modifications); assay type: biochemical; conditions: 1 μM ATP (Km level); read-out: cMet Activity (c-Met Kinase Inhibition, IC50)
T1 construct: 10 ng/mL c-Met (cytoplasmic domain, Invitrogen Corporation #PV3143); purchased Invitrogen Corporation PV3143
T1 sequence (P08581 956-1390 limits assumed): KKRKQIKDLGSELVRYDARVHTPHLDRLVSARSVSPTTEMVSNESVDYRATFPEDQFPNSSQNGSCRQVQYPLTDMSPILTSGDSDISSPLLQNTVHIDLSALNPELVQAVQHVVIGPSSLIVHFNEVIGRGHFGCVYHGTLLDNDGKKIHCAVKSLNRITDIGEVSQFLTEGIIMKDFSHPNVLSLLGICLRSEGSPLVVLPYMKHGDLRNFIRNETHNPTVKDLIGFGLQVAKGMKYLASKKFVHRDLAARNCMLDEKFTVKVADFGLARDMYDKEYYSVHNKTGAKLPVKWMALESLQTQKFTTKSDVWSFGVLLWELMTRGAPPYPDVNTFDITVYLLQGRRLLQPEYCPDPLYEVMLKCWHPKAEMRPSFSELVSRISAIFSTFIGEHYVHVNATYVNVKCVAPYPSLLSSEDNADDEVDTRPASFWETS
In short: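 Steps: coat wells with PLC-γ (10 μg/mL, Tris-buffered saline); add 10 ng/mL c-Met cytoplasmic domain to initiate; incubate 15 min, 37° C; detect phosphoproduct via Eu-N1 PT66 antibody.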

[2] = molecular target: T2, baculovirus-expressed ALK (Homo sapiens, UniProt Q9UM73); assay: ALK Kinase Assay (ELISA-type, time-resolved fluorescence); assay type: biochemical; conditions: 1 μM ATP (Km level); read-out: ALK Activity (ALK Kinase Inhibition, IC50)
T2 construct: host or cells: baculovirus expression system
T2 sequence (Q9UM73 19-1620): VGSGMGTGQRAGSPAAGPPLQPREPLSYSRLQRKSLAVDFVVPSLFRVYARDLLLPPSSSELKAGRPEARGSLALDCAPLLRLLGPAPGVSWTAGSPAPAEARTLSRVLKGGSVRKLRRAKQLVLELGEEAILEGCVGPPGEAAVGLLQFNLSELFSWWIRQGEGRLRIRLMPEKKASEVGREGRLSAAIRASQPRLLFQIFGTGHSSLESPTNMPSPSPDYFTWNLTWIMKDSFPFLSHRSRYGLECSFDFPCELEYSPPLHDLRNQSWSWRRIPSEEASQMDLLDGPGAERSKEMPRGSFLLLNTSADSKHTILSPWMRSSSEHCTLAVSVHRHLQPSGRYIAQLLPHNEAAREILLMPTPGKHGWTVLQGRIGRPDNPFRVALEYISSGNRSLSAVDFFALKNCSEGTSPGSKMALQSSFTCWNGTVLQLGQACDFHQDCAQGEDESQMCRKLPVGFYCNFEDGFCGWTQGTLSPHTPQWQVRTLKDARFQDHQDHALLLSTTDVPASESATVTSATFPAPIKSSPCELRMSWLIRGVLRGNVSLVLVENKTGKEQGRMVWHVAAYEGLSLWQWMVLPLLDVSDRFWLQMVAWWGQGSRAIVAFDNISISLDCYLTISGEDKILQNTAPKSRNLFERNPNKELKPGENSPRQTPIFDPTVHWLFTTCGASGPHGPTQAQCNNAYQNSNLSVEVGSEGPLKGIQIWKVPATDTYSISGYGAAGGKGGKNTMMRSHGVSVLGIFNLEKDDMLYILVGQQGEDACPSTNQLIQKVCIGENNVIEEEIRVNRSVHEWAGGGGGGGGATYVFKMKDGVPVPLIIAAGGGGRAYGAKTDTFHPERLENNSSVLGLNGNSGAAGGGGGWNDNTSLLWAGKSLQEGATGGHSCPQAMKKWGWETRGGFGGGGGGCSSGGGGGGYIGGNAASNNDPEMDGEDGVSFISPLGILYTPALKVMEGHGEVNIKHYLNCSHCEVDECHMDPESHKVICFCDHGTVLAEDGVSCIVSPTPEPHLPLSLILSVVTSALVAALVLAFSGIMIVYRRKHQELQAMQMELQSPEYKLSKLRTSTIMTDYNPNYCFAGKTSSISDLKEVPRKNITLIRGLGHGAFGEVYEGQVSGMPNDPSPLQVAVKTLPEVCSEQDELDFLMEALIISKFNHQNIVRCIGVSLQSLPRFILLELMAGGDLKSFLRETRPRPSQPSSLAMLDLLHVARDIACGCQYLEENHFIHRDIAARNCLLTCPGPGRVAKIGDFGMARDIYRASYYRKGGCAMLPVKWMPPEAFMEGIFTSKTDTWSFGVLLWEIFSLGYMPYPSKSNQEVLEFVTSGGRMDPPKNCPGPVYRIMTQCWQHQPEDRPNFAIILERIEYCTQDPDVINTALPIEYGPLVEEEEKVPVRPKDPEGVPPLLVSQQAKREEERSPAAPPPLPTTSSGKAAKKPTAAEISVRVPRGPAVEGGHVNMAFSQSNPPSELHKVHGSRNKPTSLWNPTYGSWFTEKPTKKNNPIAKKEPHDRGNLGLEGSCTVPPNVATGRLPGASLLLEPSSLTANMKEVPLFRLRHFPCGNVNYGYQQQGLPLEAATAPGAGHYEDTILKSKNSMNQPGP
In short: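 Wells were coated with phospholipase C-γ at 10 μg/mL in Tris-buffered saline. Adding 30 ng/ml enzyme started the reaction, which ran at 37° C for 15 minutes before Eu-N1 PT66 antibody detection. Percent inhibition versus log10 concentration gave IC50 by variable-slope fit.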

With CNC(=O)c1ccccc1Nc1nc(Nc2ccc3c(c2)OCCNC3=O)ncc1Cl [Example 512, 2-[5-Chloro-2-(5-oxo-2,3,4,5-tetrahydro-benzo[f][1,4]oxazepin-8-ylamino)-pyrimidin-4-ylamino]-N-methyl-benzamide] the IC50 [1] was < 100 nM and the IC50 [2] was < 100 nM.
For CNC(=O)c1ccccc1Nc1nc(Nc2ccc3c(c2)NC(=O)CCC3)ncc1Cl [Example 513, 2-[5-Chloro-2-(2-oxo-2,3,4,5-tetrahydro-1H-benzo[b]azepin-8-ylamino)-pyrimidin-4-ylamino]-N-methyl benzamide], the IC50 [1] was < 100 nM and the IC50 [2] was < 100 nM.
CNC(=O)c1ccccc1Nc1nc(Nc2ccc3c(c2)OCCN(C)C3=O)ncc1Cl [Example 514, 2-[5-chloro-2-(4-methyl-5-oxo-2,3,4,5-tetrahydro-benzo[f][1,4]oxazepin-8-ylamino)-pyrimidin-4-ylamino]-N-methyl-benzamide] was tested, and the IC50 [1] was < 100 nM and the IC50 [2] was < 100 nM.
CCN1CCOc2cc(Nc3ncc(Cl)c(Nc4ccccc4C(=O)NC)n3)ccc2C1=O [Example 515, 2-[5-Chloro-2-(4-ethyl-5-oxo-2,3,4,5-tetrahydro-benzo[f][1,4]oxazepin-8-ylamino)-pyrimidin-4-ylamino]-N-methyl-benzamide] was tested, and the IC50 [1] was < 100 nM and the IC50 [2] was < 100 nM.
CNC(=O)c1ccccc1Nc1nc(Nc2ccc3c(c2)CNCCS3)ncc1Cl [Example 516, 2-[5-Chloro-2-(6,7,8,9-tetrahydro-5-thia-aza-benzocyclohepten-2-ylamino)-pyrimidin-4-ylamino]-N-methyl-benzamide] was tested, and the IC50 [1] was < 100 nM and the IC50 [2] was < 100 nM.
In the case of CCN1CCSc2ccc(Nc3ncc(Cl)c(Nc4ccccc4C(=O)NC)n3)cc2C1 [Example 517, 2-[5-Chloro-2-(8-ethyl-6,7,8,9-tetrahydro-5-thia-aza-benzocyclohepten-2-ylamino)-pyrimidin-4-ylamino]-N-methyl-benzamide], the IC50 [1] is reported as < 100 nM and the IC50 [2] is reported as < 100 nM.
CS(=O)(=O)Nc1ccccc1Nc1nc(Nc2ccc3c(c2)CNCCS3)ncc1Cl [Example 518] was tested, and the IC50 [1] was 1000 to 10000 nM and the IC50 [2] was < 100 nM.
CS(=O)(=O)N[C@@H]1CCCC[C@H]1Nc1nc(Nc2ccc3c(c2)CNCCS3)ncc1Cl [Example 519, N-{(1R,2R)-2-[5-Chloro-2-(6,7,8,9-tetrahydro-5-thia-8-aza-benzocyclohepten-2-ylamino)-pyrimidin-4-ylamino]-cyclohexyl}-methanesulfonamide] was tested, and the IC50 [1] was 1000 to 10000 nM and the IC50 [2] was < 100 nM.
In the case of CS(=O)(=O)N[C@@H]1CCCC[C@H]1Nc1nc(Nc2ccc3c(c2)CNCCS3(=O)=O)ncc1Cl [Example 520, N-{(1R,2R)-2-[5-Chloro-2-(5,5-dioxo-6,7,8,9-tetrahydro-5H-5lambda*6*-thia-8-aza-benzoylcyclohepten-2-ylamino)-pyrimidin-4-ylamino]-cyclohexyl}-methanesulfonamide], the IC50 [1] is reported as 1000 to 10000 nM and the IC50 [2] is reported as 100 to 1000 nM.
COCCN1CCSc2ccc(Nc3ncc(Cl)c(N[C@@H]4CCCC[C@H]4NS(C)(=O)=O)n3)cc2C1 [Example 521, N-((1R,2R)-2-{5-Chloro-2-[8-(2-methoxy-ethyl)-6,7,8,9-tetrahydro-5-thia-8-aza-benzocyclohepten-2-ylamino]pyrimidin-4-ylamino}-cyclohexyl)-methanesulfonamide] was tested, and the IC50 [1] was 1000 to 10000 nM and the IC50 [2] was < 100 nM.
CNC(=O)c1ccccc1Nc1nc(Nc2ccc3c(c2)CN(CCOC)CCS3)ncc1Cl [Example 522, 2-{5-Chloro-2-[8-(2-methoxy-ethyl)-6,7,8,9-tetrahydro-5-thia-8-aza-benzocyclohepten-2-ylamino]-pyrimidin-4-ylamino}-N-methyl-benzamide] was tested, and the IC50 [1] was 100 to 1000 nM and the IC50 [2] was < 100 nM.
For CS(=O)(=O)Nc1ccccc1Nc1nc(Nc2ccc3c(c2)CNCCS3(=O)=O)ncc1Cl [Example 523, N-{2-[5-Chloro-2(5,5dioxo-6,7,8,9-tetrahydro-5H-5lambda*6*-thia-8-aza-benzocyclohepten-2-ylamino)-pyrimidin-4-ylamino]-phenyl}-methanesulfonamide], the IC50 [1] was 1000 to 10000 nM and the IC50 [2] was 100 to 1000 nM.
For CS(=O)(=O)N[C@@H]1CCCC[C@H]1Nc1nc(Nc2ccc3c(c2)CNCCO3)ncc1Cl [Example 524, N-{(1R,2R)-2[5-Chloro-2-(2,3,4,5-tetrahydro-benzo[f]oxazepin-7-ylamino)-pyrimidin-4-ylamino]-cyclohexyl}-methanesulfonamide], the IC50 [1] was 1000 to 10000 nM and the IC50 [2] was < 100 nM.
Work on CS(=O)(=O)N[C@@H]1CCCC[C@H]1Nc1nc(Nc2ccc3c(c2)CN(CCO)CCS3)ncc1Cl [Example 525, N-((1R,2R)-2-{-5-Chloro-2-[8-(2-hydroxy-ethyl)-6,7,8,9-tetrahydro-5-thia-8-azabenzo-cyclohepten-2-ylamino]-pyrimidin-4-ylamino}cyclohexyl)-methanesulfonamide] yielded an IC50 [1] of 1000 to 10000 nM and an IC50 [2] of 100 to 1000 nM.
In the case of CC(=O)OCCN1CCSc2ccc(Nc3ncc(Cl)c(N[C@@H]4CCCC[C@H]4NS(C)(=O)=O)n3)cc2C1 [Example 526, Acetic acid 2-{2-[5-chloro-4-((1R,2R)-2-methanesulfonylamino-cyclohexylamino)-pyrimidin-2-ylamino]-6,7-dihydro-9H-5-thia-8-aza-benzocyclohepten-8-yl}-ethyl ester], the IC50 [1] is reported as 1000 to 10000 nM and the IC50 [2] is reported as < 100 nM.
For CNC(=O)c1ccccc1Nc1nc(Nc2ccc3c(c2)CN(CCOC(C)=O)CCS3)ncc1Cl [Example 527, Acetic acid 2-{2-[5-Chloro-4-(2-methylcarbamoyl-phenylamino)-pyrimidin-2-ylamino]-6,7-dihydro-9H-5-thia-8-aza-benzoylcyclohepten-8-yl}-ethyl ester], the IC50 [1] was < 100 nM and the IC50 [2] was < 100 nM.
With CNC(=O)c1ccccc1Nc1nc(Nc2ccc3c(c2)CN(CCO)CCS3)ncc1Cl [Example 528, 2-{5-Chloro-2-[8-(hydroxyl-ethyl)-6,7,8,9-tetrahydro-5-thia-8-aza-benzoylcyclohepten-2-ylamino]-pyrimidin-4-ylamino}-N-methyl-benzamide] the IC50 [1] was < 100 nM and the IC50 [2] was < 100 nM.
In the case of CNC(=O)c1ccccc1Nc1nc(Nc2cccc3c2N(C)CCN(C)C3=O)ncc1Cl [Example 541, 2-[5-Chloro-2-(1,4-dimethyl-5-oxo-2,3,4,5-tetrahydro-1H-benzo[e][1,4]diazepin-9-ylamino)-pyrimidin-4-ylamino]-N-methyl-benzamide], the IC50 [1] is reported as > 10000 nM and the IC50 [2] is reported as 100 to 1000 nM.
In the case of CN1CCN(C)c2c(Nc3ncc(Cl)c(N[C@@H]4CCCC[C@H]4NS(C)(=O)=O)n3)cccc2C1=O [Example 542, N-{(1R,2R)-2-[5-Chloro-2-(1,4-dimethyl-5-oxo-2,3,4,5-tetrahydro-1H-benzo[e][1,4]diazepin-9-ylamino)-pyrimidin-4-ylamino]-cyclohexyl} methanesulfonamide], the IC50 [1] is reported as > 10000 nM and the IC50 [2] is reported as < 100 nM.
For CNS(=O)(=O)c1ccccc1Nc1nc(Nc2cccc3c2N(C)CCN(C)C3=O)ncc1Cl [Example 543, 2-[5-Chloro-2-(1,4-dimethyl-5-oxo-2,3,4,5-tetrahydro-1H-benzo[e][1,4]diazepin-9-ylamino)-pyrimidin-4-ylamino]-N-methyl-benzenesulfonamide], the IC50 [1] was > 10000 nM and the IC50 [2] was 1000 to 10000 nM.
CNC(=O)c1ccccc1Nc1nc(Nc2cccc3c2N(C)CCNC3=O)ncc1Cl [Example 544, 2-[5-Chloro-2-(1-methyl-5-oxo-2,3,4,5-tetrahydro-1H-benzo[e][1,4]diazepin-9-ylamino)pyrimidin-4-ylamino]-N-methyl-benzamide] was tested, and the IC50 [1] was > 10000 nM and the IC50 [2] was < 100 nM.
